Data set [1] relates to Drosophila. Put plainly: Innate immunity-regulating activity in Drosophila Dpt-lacZ larvae assessed as suppression of immune response by measuring DAP-type peptidoglycan-mediated Dpt-lacZ activation at 10 ug/ml incubated at 25 degC for 12 hrs by beta-galactosidase reporter gene assay. In kind it is functional.
In data set [2] the test system is Drosophila. The experiment in a line: Innate immunity-regulating activity in Drosophila Dpt-lacZ larvae assessed as suppression of immune response by measuring DAP-type peptidoglycan-mediated Dpt-lacZ activation at 1 ug/ml incubated at 25 degC for 12 hrs by beta-galactosidase reporter gene assay. The class given is functional, organism-based.
Data set [3] relates to Drosophila. Put plainly: Innate immunity-regulating activity in Drosophila Dpt-lacZ larvae assessed as suppression of immune response by measuring DAP-type peptidoglycan-mediated Dpt-lacZ activation at 0.1 to 100 ug/ml incubated at 25 degC for 12 hrs by beta-galactosidase reporter gene assay. In kind it is functional, organism-based.
Data set [4] relates to Drosophila. Put plainly: Cytotoxicity against Drosophila S2 assessed as reduction in cell viability at 0.1 to 100 ug/ml by WST8 dye based assay.

Calls of active or inactive are those of the source. No cut-off for these calls is given here.

`CCC[C@H]1NC(=O)[C@@H](NC(C)=O)[C@@H](C)OC(=O)[C@H](C(C)C)NC(=O)[C@H](Cc2ccc(OC)cc2)N(C)C(=O)[C@@H]2CCCN2C(=O)[C@@H]2CCCN2C1=O`: in the data set with Drosophila [1], the inhibition result was “inactive”. Still for that read-out and setting: for `CC[C@@H](C)[C@H]1NC(=O)[C@@H](NC(C)=O)[C@@H](C)OC(=O)[C@H](C(C)C)NC(=O)[C@H](Cc2ccccc2)NC(=O)[C@@H]2CCCN2C(=O)[C@@H]2CCCN2C1=O` the value was “inactive”. As to `COc1cc(O)c2c(c1)/C=C/C[C@H](O)[C@H](O)[C@@H](O)/C=C/C[C@H](C)OC2=O`, the inhibition result with Drosophila [2] was “Active”. Regarding `CC[C@@H](C)[C@H]1NC(=O)[C@@H](NC(C)=O)[C@@H](C)OC(=O)[C@H](C(C)C)NC(=O)[C@H](Cc2ccc(OC)cc2)N(C)C(=O)[C@@H]2CCCN2C(=O)[C@@H]2CCCN2C1=O`, in the data set on Drosophila [1], the inhibition result was “inactive”. Take `CC[C@@H](C)[C@@H]1NC(=O)[C@H](Cc2ccc(OC)cc2)N(C)C(=O)[C@@H]2CCCN2C(=O)[C@@H]2CCCN2C(=O)[C@@H]([C@H](C)CC)NC(=O)[C@@H](NC(C)=O)[C@@H](C)OC1=O`: the inhibition at 10 µg/mL in the data set with Drosophila [1] came to 37%. For the same compound, the inhibition entry in the data set with Drosophila [3] is “Dose-dependent effect”. Besides, the Activity entry in the data set with Drosophila [4] is recorded as “Non-toxic”. As for `CC[C@@H](C)[C@H]1NC(=O)[C@@H](NC(C)=O)[C@@H](C)OC(=O)[C@H](C(C)C)NC(=O)[C@H](Cc2ccccc2)N(C)C(=O)[C@@H]2CCCN2C(=O)[C@@H]2CCCN2C1=O`, the inhibition entry with Drosophila [1] was “inactive”. Still for that read-out and setting: for `CC[C@@H](C)[C@H]1NC(=O)[C@@H](NC(C)=O)[C@@H](C)OC(=O)[C@H]([C@@H](C)CC)NC(=O)[C@H](Cc2ccc(OC)cc2)N(C)C(=O)[C@@H]2CCCN2C(=O)[C@@H]2CCCN2C1=O` the value was “inactive”.

Source of the values: ChEMBL document CHEMBL3593213, “Isolation of a Cyclic Depsipetide, Aspergillicin F, and Synthesis of Aspergillicins with Innate Immune-Modulating Activity” (J Nat Prod, 2015).
